Assay [1] relates to isolated IMCs (GEMM colonies, multipotent myeloid progenitor cells). The experiment in a line: CFU-GEMM colony forming assay of isolated IMCs. Format: cell-based, athymic nude mice. The settings on record: 5 μM, GEMM-supportive semi-solid media, 3 weeks of culture. As for the experimental part: (A) Splenic IMCs (Gr-1+CD11b+, also defined as MDSCs: myeloid-derived suppressor cells) were isolated from MDA-MB-231 tumor-bearing athymic nude mice and exposed to BSA, S1P (5 μM), or dhS1P (5 μM). Following 24-hour culture incubation, cells were labeled with specific antibodies and analyzed by multicolor flow cytometry (red: IMCs; blue: possible B-cells). (B) Splenic IMCs were isolated from MDA-MB-231 tumor-bearing athymic nude mice and cultured (5×10^4 cells/mL) in GEMM-supportive semi-solid media with BSA, S1P (5 μM), or dhS1P (5 μM). GEMM colonies (multipotent myeloid progenitor cells) were visualized and counted after 3 weeks of culture. ANOVA, *p<0.01 compared to no treatment or BSA-treatment, ***p<0.001 compared to S1P-treatment, n≧3. (C) Splenic hematopoietic progenitors (Lineage-Sca-1+CD117+) were isolated from MDA-MB-231 tumor-bearing athymic nude mice and exposed to BSA, S1P (5 μM), or dhS1P (5 μM). Following 24-hour culture incubation, cells were labeled with specific antibodies and analyzed by multicolor flow cytometry. […]
Isolated IMCs from the spleens of tumor-bearing athymic nude mice were cultured (5×10^4 cells/mL) in GEMM-supportive complete (mouse) methylcellulose media (R&D Systems, Minneapolis, Minn.), according to the manufacturer's instructions, with BSA, S1P (5 μM), or dhS1P (5 μM). GEMM colonies were visualized and counted after 3 weeks of culture.

Assay [2] concerns murine Panc-02 pancreatic cancer cells. The experiment in a line: Injection of BSA-conjugated sphingolipids into mice with subcutaneous Panc-02 tumors. The conditions noted are these: subcutaneous Panc-02 in C57BL/6J mice; injection every other day, 0.1 mL of 100 μM, BSA carrier. The class given is in vivo. The text has this:
(A) Splenic IMCs (Gr-1+CD11b+, also defined as MDSC: myeloid-derived suppressor cells) were isolated from subcutaneous human MDA-MB-231 breast tumor-bearing athymic nude mice, treated with or without dhS1P (to induce the expansion of CD19+CD45R B220+ cells: B-cells), and adoptively transferred into subcutaneous human MDA-MB-231 breast tumor-bearing athymic nude mice before monitoring tumor growth. ANOVA, **p<0.05 compared to PBS control, n≧6. (B) Splenic IMCs were isolated from orthotopic human BxPC-3 pancreatic tumor-bearing athymic nude mice, treated with or without dhS1P, and adoptively transferred into orthotopic human BxPC-3 pancreatic tumor-bearing athymic nude mice before monitoring survival. Logrank test, *p<0.05, n=5. (C) Tumor growth following BSA (lipid carrier control), sphingosine-1-phosphate (S1P), or dhS1P injection every other day, was monitored in C57BL/6J mice engrafted with subcutaneous murine Panc-02 pancreatic cancer cells. ANOVA, **p<0.05 compared to BSA control, n≧6.
Orthotopic pancreatic cancer and subcutaneous breast cancer tumors were established in athymic nude, NOD.CB17-Prkdcscid/J, BALB/cJ, or C57BL/6J mice as previously described (8, 9), with minor modifications. All cell lines used in animal and cellular studies, prior to any modification, were originally obtained from the American Type Culture Collection (Manassas, Va.). For orthotopic BxPC-3-GFP human pancreatic cancer xenografts, 4-6 week old female athymic mice were fully anesthetized with a mixture of ketamine-HCl (129 mg/kg) and xylazine (4 mg/kg) injected intramuscularly. A small incision was made in the left flank, the peritoneum was dissected and the pancreas exposed. Using a 27-gauge needle, 2.5×10^6 cells, prepared in 0.1 mL of Hank's balanced salt solution, were injected into the pancreas. For experimental lung-metastatic osteosarcoma xenografts, 4-6 week old female athymic nude mice were tail vein-injected with 2.5×10^6 human SAOS-2-LM7 cells. […] Tumor size was measured by caliper measurement. […]

For assay [3], the system named is human MDA-MB-231 breast cancer cells. The assay is described as follows: PhotoImmunoNanoTherapy, subcutaneous MDA-MB-231 breast tumor growth in athymic nude mice. The class given is in vivo. The conditions noted are these: subcutaneous MDA-MB-231 in athymic nude mice; one injection, NIR laser 24 h later. The text has this:
To evaluate the antitumor efficacy of PhotoImmunoNanoTherapy, two murine models of breast cancer were utilized to study effects in T-cell-competent hosts (murine 410.4 cells in BALB/cJ mice) and T-cell-deficient hosts (human MDA-MB-231 cells in athymic nude mice; murine 410.4 cells in NOD.CB17-Prkdcscid/J mice), in addition to a subcutaneously engrafted model of pancreatic cancer (murine Panc-02 cells in C57BL/6J mice), an orthotopic pancreatic cancer model (human BxPC-3 cells in athymic nude mice), and an experimental model of lung-metastatic osteosarcoma (human SAOS-2-LM7 cells in athymic nude mice). Treatments were initiated one week following tumor establishment and consisted of injections of ICG-CPSNPs or controls followed 24 h later by NIR laser treatment of the tumor location to allow adequate tumor accumulation of PEGylated ICGCPSNPs. […] In the most elaborate study, MDA-MB-231 tumor growth was abrogated in athymic nude mice receiving PEGylated ICG-CPSNPs but not PBS or PEGylated ghost CPSNPs (FIG. 1A). Furthermore, MDA-MB-231 tumor growth was not blocked by non-PEGylated (citrate-terminated) ICG-CPSNPs or free ICG.
Orthotopic pancreatic cancer and subcutaneous breast cancer tumors were established in athymic nude, NOD.CB17-Prkdcscid/J, BALB/cJ, or C57BL/6J mice as previously described (8, 9), with minor modifications. […] Tumor size was measured by caliper measurement. […]

Consider `CCCCCCCCCCCCC/C=C/[C@@H](O)[C@@H](N)COP(=O)(O)O` [S1P, sphingosine-1-phosphate, reference compound], for which the CFU-GEMM colony formation entry in assay [1] was “dramatically augmented”. In assay [2], the Tumor growth entry is “augmented tumor growth”.
Take `CC1(C)C(/C=C/C=C/C=C/C=C2\N(CCCCS(=O)(=O)O)c3ccc4ccccc4c3C2(C)C)=[N+](CCCCS(=O)(=O)[O-])c2ccc3ccccc3c21` [free ICG, indocyanine green]: the Tumor growth result in assay [3] is “not blocked”.
